Results from PubChem BioAssay AID256 (DTP/NCI, 2004).
Where “and” joins values, the source holds several entries; their conditions need not be identical. Equal entries are not always repeated. Toxic doses and inconclusive results are not listed. How the source made its calls: active means survival T/C of 150% or more; inactive means T/C below 125% in these data.

System: CD2F1 mice, L1210 leukemia ip, survival T/C
Test: NCI In Vivo Anticancer Drug Screen. Data for tumor model L1210 Leukemia (intraperitoneal) in CD2F1 (CDF1) mice
Conditions: higher = longer survival
How it was run: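 Compound-dosed mice with transplantable tumor versus matched vehicle controls; endpoint ratio T/C reported.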

[1] = endpoint: mean survival time, dose: 100.0 mg/kg/injection, schedule: Q04DX002 (ip), vehicle: saline with Tween-80
[2] = endpoint: mean survival time, dose: 200.0 mg/kg/injection, schedule: Q04DX002 (ip), vehicle: saline with Tween-80
[3] = endpoint: mean survival time, dose: 400.0 mg/kg/injection, schedule: Q04DX002 (ip), vehicle: saline with Tween-80
[4] = endpoint: mean survival time, dose: 25.0 mg/kg/injection, schedule: Q01DX009 (ip), vehicle: saline with Tween-80
[5] = endpoint: mean survival time, dose: 50.0 mg/kg/injection, schedule: Q01DX009 (ip), vehicle: saline with Tween-80
[6] = endpoint: mean survival time, dose: 100.0 mg/kg/injection, schedule: Q01DX009 (ip), vehicle: saline with Tween-80
[7] = endpoint: mean survival time, dose: 200.0 mg/kg/injection, schedule: Q01DX009 (ip), vehicle: saline with Tween-80
[8] = endpoint: mean survival time, dose: 12.5 mg/kg/injection, schedule: Q01DX009 (ip), vehicle: saline with Tween-80
[9] = endpoint: mean survival time, dose: 100.0 mg/kg/injection, schedule: Q04DX003 (ip), vehicle: saline with Tween-80
[10] = endpoint: mean survival time, dose: 200.0 mg/kg/injection, schedule: Q04DX003 (ip), vehicle: saline with Tween-80
[11] = endpoint: mean survival time, dose: 400.0 mg/kg/injection, schedule: Q04DX003 (ip), vehicle: saline with Tween-80

Measured: T/C

NCCCNC(=O)OCc1ccccc1
inactive: endpoint: mean survival time, dose: 100.0 mg/kg/injection, schedule: Q01DX001 (ip), vehicle: saline 105 % of control | endpoint: mean survival time, dose: 200.0 mg/kg/injection, schedule: Q01DX001 (ip), vehicle: saline 102 % of control | endpoint: mean survival time, dose: 400.0 mg/kg/injection, schedule: Q01DX001 (ip), vehicle: saline 102 % of control

O=C1OC(O)(c2ccc(Cl)cc2)C(Cc2ccccc2)=C1c1ccccc1 (stereo not drawn)
inactive: [1] 97 % of control | [2] 90 % of control | [3] 102 % of control

COc1cc2cccc(N)c2cc1OC
inactive: endpoint: mean survival time, dose: 12.5 mg/kg/injection, schedule: Q01DX009 (ip), vehicle: water 95 % of control | endpoint: mean survival time, dose: 25.0 mg/kg/injection, schedule: Q01DX009 (ip), vehicle: water 95 % of control | endpoint: mean survival time, dose: 50.0 mg/kg/injection, schedule: Q01DX009 (ip), vehicle: water 95 % of control

COc1ccc(NC(=O)Oc2ccc(C3CCCCC3)cc2)cc1
inactive: [4] 97 % of control | endpoint: mean survival time, dose: 25.0 mg/kg/injection, schedule: Q04DX002 (ip), vehicle: saline with Tween-80 104 % of control | [5] 93 % of control | endpoint: mean survival time, dose: 50.0 mg/kg/injection, schedule: Q04DX002 (ip), vehicle: saline with Tween-80 104 % of control | [6] 89 % of control | [1] 101 % of control | [2] 108 % of control

CSc1nc(NC2OCC(O)C(O)C2O)c(Br)c(=O)n1C (stereo not drawn)
inactive: endpoint: median survival time, dose: 12.5 mg/kg/injection, schedule: Q01DX005 (ip), vehicle: saline with Tween-80 98 % of control | endpoint: median survival time, dose: 25.0 mg/kg/injection, schedule: Q01DX005 (ip), vehicle: saline with Tween-80 100 % of control | endpoint: median survival time, dose: 50.0 mg/kg/injection, schedule: Q01DX005 (ip), vehicle: saline with Tween-80 101 % of control | endpoint: median survival time, dose: 100.0 mg/kg/injection, schedule: Q01DX005 (ip), vehicle: saline with Tween-80 102 % of control | endpoint: median survival time, dose: 200.0 mg/kg/injection, schedule: Q01DX005 (ip), vehicle: saline with Tween-80 98 % of control

Cc1ccccc1N=C(c1ccccc1)C1C(=O)c2ccccc2C1=O
inactive: endpoint: median survival time, dose: 50.0 mg/kg/injection, schedule: Q01DX005 (ip), vehicle: DMSO 103 % of control | endpoint: median survival time, dose: 100.0 mg/kg/injection, schedule: Q01DX005 (ip), vehicle: DMSO 100 % of control | endpoint: median survival time, dose: 200.0 mg/kg/injection, schedule: Q01DX005 (ip), vehicle: DMSO 103 % of control | endpoint: median survival time, dose: 400.0 mg/kg/injection, schedule: Q01DX005 (ip), vehicle: DMSO 101 % of control | endpoint: median survival time, dose: 800.0 mg/kg/injection, schedule: Q01DX005 (ip), vehicle: DMSO 100 % of control

CC(C)(O)C1OCC(C2CCC3(C)C4=CCC5C(C)(C)C(O)CCC5(C)C4CCC23C)CC1O (stereo not drawn)
inactive: endpoint: mean survival time, dose: 2.5 mg/kg/injection, schedule: Q01DX009 (ip), vehicle: Klucel (hydroxypropylcellulose) (HPC) 94 % of control | endpoint: mean survival time, dose: 5.0 mg/kg/injection, schedule: Q01DX009 (ip), vehicle: Klucel (hydroxypropylcellulose) (HPC) 103 % of control | endpoint: mean survival time, dose: 10.0 mg/kg/injection, schedule: Q01DX009 (ip), vehicle: Klucel (hydroxypropylcellulose) (HPC) 88 % of control

O=C(O)CCC(=O)c1ccccc1
inactive: [5] 101 % of control | [6] 106 % of control | [7] 106 % of control

ClC1CCC[N-]C1.ClC1CCC[N-]C1.O=C(O)CC(=O)O.[Pt+2] (stereo not drawn)
inactive: [8] 102 % of control | [4] 100 % of control | [5] 104 % of control | [6] 104 % of control | [7] 94 % of control

Nc1ccc2cc3ccccc3cc2c1
inactive: [8] 104 % of control | [4] 104 % of control | [5] 95 % of control | [9] 109 % of control | [10] 111 % of control | [11] 94 % of control

CC(C)CCCC(C)C1CCC2C3CCC4CC(OCN5CCCCC5)CCC4(C)C3CCC12C (stereo not drawn)
inactive: endpoint: mean survival time, dose: 100.0 mg/kg/injection, schedule: Q04DX003 (ip), vehicle: Klucel (hydroxypropylcellulose) (HPC) 95 % of control | endpoint: mean survival time, dose: 200.0 mg/kg/injection, schedule: Q04DX003 (ip), vehicle: Klucel (hydroxypropylcellulose) (HPC) 92 % of control | endpoint: mean survival time, dose: 400.0 mg/kg/injection, schedule: Q04DX003 (ip), vehicle: Klucel (hydroxypropylcellulose) (HPC) 92 % of control

O=C(Nc1cccc(S(=O)(=O)F)c1)c1cccc([N+](=O)[O-])c1
inactive: [9] 105 % of control | [10] 102 % of control | [11] 96 % of control

NN(C(=O)c1ccccc1)C1CCCCC1
inactive: [6] 97 % of control

CC(C)O.CC(C)O.CC(C)O.[La]
inactive: endpoint: mean survival time, dose: 100.0 mg/kg/injection, schedule: Q04DX003 (ip), vehicle: saline 97 % of control | endpoint: mean survival time, dose: 200.0 mg/kg/injection, schedule: Q04DX003 (ip), vehicle: saline 87 % of control | endpoint: mean survival time, dose: 400.0 mg/kg/injection, schedule: Q04DX003 (ip), vehicle: saline 89 % of control

CC(C)(C)C1CCC(=O)C1 (stereo not drawn)
inactive: [8] 87 % of control | [4] 95 % of control

Cc1cccc(NC(=O)/C=C/c2ccccc2)c1C
inactive: [1] 98 % of control | [2] 94 % of control | [3] 94 % of control

[CH3][Sn]([CH3])([Cl])[c]1cc[c]([Sn]([CH3])([CH3])[Cl])cc1
inactive: endpoint: median survival time, dose: 0.12 mg/kg/injection, schedule: Q01DX009 (ip), vehicle: saline 100 % of control | endpoint: median survival time, dose: 0.25 mg/kg/injection, schedule: Q01DX009 (ip), vehicle: saline 101 % of control | endpoint: median survival time, dose: 0.5 mg/kg/injection, schedule: Q01DX009 (ip), vehicle: saline 105 % of control | endpoint: median survival time, dose: 1.0 mg/kg/injection, schedule: Q01DX009 (ip), vehicle: saline 101 % of control and 108 % of control | endpoint: median survival time, dose: 2.0 mg/kg/injection, schedule: Q01DX009 (ip), vehicle: saline 108 % of control and 110 % of control
